According to PMC8910697, “Development of VPC-70619, a Small-Molecule N-Myc Inhibitor as a Potential Therapy for Neuroendocrine Prostate Cancer” (International Journal of Molecular Sciences, 2022):

How the values were obtained:
Format in all cases: cell-based
[1] = tested on: N-Myc-Max transcription activity (LNCaP-NMYC cells); experiment: Myc transcription assay (Cignal Myc reporter, luciferase) in LNCaP-NMYC cells; settings: LNCaP-NMYC, screened at 10 µM and 5 µM
Protocol: To determine the optimal substitutions on the free phenyl ring, we used the active scaffold for a second substructure search against the ZINC15 database to identify a set of 181 analogues for further validation (VPC-70617 to -70799, presented in Supplementary Table S1). Compounds were tested for their inhibition of a N-Myc-Max luciferase transcription activity assay at 5 and 10 µM Figure 2a. Herein, we inspected all the proposed substitutions on the scaffold to discern the features required to construct a possible SAR model for inhibitors targeting N-Myc-Max/DBD complex (Figure 2b).
LNCaP-NMYC cells were transfected using TransIT-2020 transfection reagents per the manufacturer’s protocol. Cells were plated at a density of 10,000 cells per well of a 96-well plate. Following 24 h treatment with 5 µM or 10 µM of the compounds, the Myc reporter activity was measured using the Cignal Myc Reporter Assay Kit from Qiagen (#336841) (Hilden, Germany) per the manufacturer’s instructions.

IMR32 cells = experiment: Cell viability (CellTiter-Glo), IMR32; settings: Homo sapiens, IMR-32
Protocol: (§1) The 54 compounds were tested at 10 µM for their inhibition of the IMR32 human neuroblastoma cell line, in which the MYCN gene is amplified and actively expressed (Table 3). HO15.19 cell line (Myc-negative) was used in parallel as a compound specificity control.
(§2) Viability of N-Myc positive (IMR32and NCI-H660) and negative (HO15.19) cells were determined using the CellTiter-Glo Luminescent Cell Viability Assay (Promega cat. G7570) (Madison, WI, USA). Cells were seeded into a 96-well white plate with a clear bottom: 10,000 cells per well for the IMR32 cells cultured in EMEM supplemented with 10% FBS, 2000 HO15.19 cells per well in Eagle’s minimum essential medium (EMEM) supplemented with 10% FBS, and 2000 cells per well for the NCI-H660 neuroendocrine cells cultured in RPMI supplemented 5% FBS, 1% Insulin-Transferrin-Selenium (Thermo Fisher, 41400-045), 10nM b-estradiol (Sigma, E8875), 10nM hydrocortisone (Sigma H0888) and 1% matrigel. Following 24 h incubation, the cells were treated with serial dilutions of the derivatives along with the respective parental compound starting at 25 μM for 72 h. Cell Titer Glo was added to each well at a ratio of 1:1 and incubated on a shaker at RT for 2 min. Luminescence and IC50 was measured with the TECAN InfiniteM200 plate reader (Männedorf, Switzerland).

HO15.19 cells = experiment: Cell viability counter-screen (CellTiter-Glo), Myc-negative HO15.19; settings: Rattus norvegicus, HO15.19, 10 µM; Myc-negative specificity control
Protocol: as §1, §2

Row | SMILES | transcription inhibition activity (in words) [1] | inhibition at 10 µM (IMR32 cells) [%] | inhibition at 10 µM (HO15.19 cells) [%]
1 | N#Cc1ccc(NNC(=O)c2ccc(F)c(I)c2)c(C(F)(F)F)c1 [compound 70726] | strong increase in inhibition activity | 75.6 | 66.2
2 | N#Cc1ccc(NNC(=O)c2cc(F)c(Cl)cc2Cl)c(C(F)(F)F)c1 [compound 70730] | recovered the inhibition activity | 87.5 | 77.1
3 | CC(C)(c1ccc(C(=O)NNc2ccc(C#N)cc2C(F)(F)F)cc1)C(F)(F)F [compound 70733] | active | 57.4 | 57.8
4 | N#Cc1ccc(NNC(=O)c2ccc(F)c(Br)c2)c(C(F)(F)F)c1 [compound 70734] | strong increase in inhibition activity | 86.5 | 77.8
5 | N#Cc1ccc(NNC(=O)c2cc(F)cc(Br)c2)c(C(F)(F)F)c1 [compound 70739] | better inhibition activity | 87.2 | 75.8
6 | N#Cc1ccc(NNC(=O)c2cc(F)c(Cl)cc2F)c(C(F)(F)F)c1 [compound 70741] | recovered the inhibition activity | 16.4 | 14.5
7 | N#Cc1ccc(NNC(=O)c2ccc(I)c(F)c2)c(C(F)(F)F)c1 [compound 70742] | better inhibition activity | 26.1 | 71.8
8 | N#Cc1ccc(NNC(=O)c2ccc(Br)c(F)c2)c(C(F)(F)F)c1 [compound 70743] | strong increase in inhibition activity | 38.7 | 74.9
9 | N#Cc1ccc(NNC(=O)c2cc(C(F)(F)F)cc(C(F)(F)F)c2)c(C(F)(F)F)c1 [compound 70756] | better inhibition activity | 95.7 | 84.1
10 | N#Cc1ccc(NNC(=O)c2cc(Cl)cc([N+](=O)[O-])c2)c(C(F)(F)F)c1 [compound 70761] | better inhibition activity | 93.3 | 81
11 | N#Cc1ccc(NNC(=O)c2cc(F)c(Cl)c(F)c2)c(C(F)(F)F)c1 [compound 70767] | strong increase in inhibition activity | 31.6 | 40.3
12 | N#Cc1ccc(NNC(=O)c2cc(Cl)cc(Br)c2F)c(C(F)(F)F)c1 [compound 70768] | high transcription inhibition activity | 35.3 | 39.8
13 | N#Cc1ccc(NNC(=O)c2cc(C(F)(F)F)ccc2F)c(C(F)(F)F)c1 [compound 70769] | high transcription inhibition activity | 32.2 | 28.2
14 | N#Cc1ccc(NNC(=O)c2cc(F)c(Br)c(Cl)c2)c(C(F)(F)F)c1 [compound 70775] | strong increase in inhibition activity | 62.4 | 65.1
15 | N#Cc1ccc(NNC(=O)c2cc(Cl)cc(F)c2Br)c(C(F)(F)F)c1 [compound 70776] | high transcription inhibition activity | 27.4 | 26.1
16 | N#Cc1ccc(NNC(=O)c2cc(OC(F)F)cc(OC(F)F)c2)c(C(F)(F)F)c1 [compound 70792] | maintained good transcription inhibition activity | 84.9 | 79.5
17 | N#Cc1ccc(NNC(=O)c2cc(F)cc(C(F)(F)F)c2)c(C(F)(F)F)c1 [compound 70794] | better inhibition activity | 89.2 | 80.7
18 | N#Cc1ccc(NNC(=O)c2ccc(C(F)(F)F)cc2O)c(C(F)(F)F)c1 [compound 70797] | activity was maintained | 24.7 | 34.2
